The source of these data is patent US10238624B2, “Composition for activating longevity genes, containing kojic acid derivative as active ingredient” (AMOREPACIFIC CORPORATION, priority 2015, dated 2019).

Common to all, as to format: cell-based
In assay [1] the test system is Sirt-1 mRNA. Kind of assay: Relative expression of Sirt-1 mRNA in fibroblasts (TaqMan RT-PCR). The note with it: normal human fibroblasts, 10 ppm, 37° C., 24 hours; control = 1.0. Here is the method: (§1) In order to investigate the effect of the kojic acid derivative according to the present disclosure on the activation of longevity genes, the effect of kojyl methylenedioxycinnamate on the activation of Sirt-1, Klotho, XPD and ERCC8 was compared with that of retinol using normal human keratinocytes (NHKs) and normal human fibroblasts (NHFs).
(§2) Specifically, after treating the keratinocytes (NHKs) and fibroblasts (NHFs) with kojyl methylenedioxycinnamate or retinol at 10 ppm and incubating them at 37° C. for 24 hours, the relative expression of Sirt-1, Klotho, XPD and ERCC8 mRNAs was compared by isolating the total RNAs from the cells. The NHFs were purchased from Lonza (Allendale, N.J., USA) and incubated at 37° C. for 24 hours using DMEM after transferring 2×10^5 cells onto a 60-mm dish. After discarding the medium, the cells were transferred to a fresh tissue culture flask. […]
(§3) The total RNAs were isolated using TRIzol™ (Invitrogen, Carlsbad, Calif., USA) according to the manufacturer's instructions. RNA concentration was measured spectrophotometrically and RNA integrity was measured using BioAnalyzer 2100 (Agilent Technologies, Santa Clara, Calif., USA). […] Target gene expression level was measured by quantitative real-time TaqMan RT-PCR (7500Fast, Applied Biosystems, Foster City, Calif., USA). […]
On the technique in general: In qPCR the cycle at which signal appears reflects the starting amount.

Assay [2] concerns Klotho mRNA. Kind of assay: Relative expression of Klotho mRNA in keratinocytes (TaqMan RT-PCR). The note with it: normal human keratinocytes, 10 ppm, 37° C., 24 hours; control = 1.0. Here is the method:
as §1, §2, §3

The test system of assay [3] is Klotho mRNA. The assay can be described thus: Relative expression of Klotho mRNA in fibroblasts (TaqMan RT-PCR). The note with it: normal human fibroblasts, 10 ppm, 37° C., 24 hours; control = 1.0. Here is the method:
as §1, §2, §3

In assay [4] the test system is XPD mRNA. Kind of assay: Relative expression of XPD mRNA in fibroblasts (TaqMan RT-PCR). The conditions noted are these: normal human fibroblasts, 10 ppm, 37° C., 24 hours; control = 1.0. On the procedure:
as §1, §2, §3

The subject of assay [5] is ERCC8 mRNA. Kind of assay: Relative expression of ERCC8 mRNA in fibroblasts (TaqMan RT-PCR). The note with it: normal human fibroblasts, 10 ppm, 37° C., 24 hours; control = 1.0. On the procedure:
as §1, §2, §3

The subject of assay [6] is XPD mRNA. The assay can be described thus: Relative expression of XPD mRNA in keratinocytes (TaqMan RT-PCR). The note with it: normal human keratinocytes, 10 ppm, 37° C., 24 hours; control = 1.0. Here is the method: as §1, §2, §3
Assay [7] deals with Sirt-1 mRNA. Kind of assay: Relative expression of Sirt-1 mRNA in keratinocytes (TaqMan RT-PCR). The conditions noted are these: normal human keratinocytes, 10 ppm, 37° C., 24 hours; control = 1.0. Here is the method:
as §1, §2, §3

In assay [8] the test system is ERCC8 mRNA. Kind of assay: Relative expression of ERCC8 mRNA in keratinocytes (TaqMan RT-PCR). The note with it: normal human keratinocytes, 10 ppm, 37° C., 24 hours; control = 1.0. On the procedure: as §1, §2, §3
For a further assay, the system named is FoxO3a. Kind of assay: FoxO3a activation by nuclear translocation rate in human MNT1 melanoma cells (DAPI/anti-FoxO3a confocal microscopy). The note with it: 48 hours; for nuclear translocation rate: control 13.2%. On the procedure: In order to investigate the effect of the kojic acid derivative according to the present disclosure on the activation of longevity genes, the effect of the kojyl methylenedioxycinnamate seletinoid G on the activation of the FoxO3a gene was investigated by measuring nuclear translocation rate using human MNT1 melanoma cells purchased from Lonza.
The degree of FoxO3a activation was evaluated based on violet fluorescence resulting from the overlapping of red and blue fluorescence. • Primary antibody: anti-FoxO3a (1:200), 4° C., overnight. • Secondary antibody: Alexa Fluor 555-conjugated goat (1:5000), room temperature, 1 hour.

As for `O=C(/C=C/c1ccc2c(c1)OCO2)OCc1cc(=O)c(O)co1` [Kojyl methylenedioxycinnamate, kojyl methylenedioxycinnamate], the “relative expression of Sirt-1 mRNA” value is given as 2.4 in the assay with Sirt-1 mRNA [1] and 5.2 with Sirt-1 mRNA [7]. Besides, the results for the “relative expression of Klotho mRNA” value in the assay with Klotho mRNA [2] and in the assay with Klotho mRNA [3] were 9.1 and 2.5, respectively. In addition, the figures for the “relative expression of XPD mRNA” value with XPD mRNA [4] and with XPD mRNA [6] were 3.5 and 8.5, respectively. The “relative expression of ERCC8 mRNA” value in the assay on ERCC8 mRNA [5] worked out at 1.4; in the assay on ERCC8 mRNA [8] it was 1.9. Also, the “activation of the longevity gene FoxO3a (in words)” value in the assay with FoxO3a (15-450 ppm) is reported as “remarkably activates”. In addition, the nuclear translocation rate in the assay with FoxO3a (15 ppm) was 35.7%; with FoxO3a (150 ppm) it was 86.3%; with FoxO3a (450 ppm), 66.9%.
With `CC1=C(/C=C/C(C)=C/C=C/C(C)=C/CO)C(C)(C)CCC1` [Retinol, retinol, reference compound], the “relative expression of Sirt-1 mRNA” value is on record as 2.5 in the assay on Sirt-1 mRNA [1] and 4.6 in the assay with Sirt-1 mRNA [7]. Moreover, the “relative expression of Klotho mRNA” value with Klotho mRNA [2] was determined as 8.9; in the assay with Klotho mRNA [3] it was 2.2. For the same compound, the “relative expression of XPD mRNA” value amounted to 2.5 in the assay on XPD mRNA [4] and 8.2 in the assay with XPD mRNA [6]. For the same compound, the “relative expression of ERCC8 mRNA” value with ERCC8 mRNA [5] is 1.3; in the assay on ERCC8 mRNA [8] it was 1.5.
